Tests used:
[1] = Measured pKa in the indicated formulation; settings: for pKa: EPO: measured in EPO formulation; for pKa: FVII: measured in FVII formulation
Procedure: Measured pKa values were determined based on the pH measured in the indicated formulation (i.e., EPO or FVII formulation).

[2] = Mouse plasma stability; assay type: in vitro ADME, CD-1 mouse; settings: 1 uM lipid
Procedure: Lipid stock solution was prepared by dissolution of the lipid in isopropanol at the concentration of 5 mg/mL. A requisite volume of the lipid-isopropanol solution was then diluted to 100 μM concentration at a total volume of 1.0 mL with in 50:50 (v/v) ethanol/water. Ten microliters of this 100 μM solution was spiked into 1.0 mL of mouse plasma (BioIVT, Cat. No.: MSE00PLNHUNN, CD-1 mouse, anticoagulant: sodium heparin, not filtered) that was pre-warmed to 37° C. and was stirred at 50 rpm with a magnetic stir bar. The starting concentration of lipids in plasma was thus 1 μM. At time points 0, 15, 30, 45, 60 and 120 min, 0.1 mL of the plasma was withdrawn from the reaction mixture and the protein was precipitated by adding 0.9 mL of ice-cold 4:1 (v/v) acetonitrile/methanol with 1 μg/mL of a selected internal standard lipid added. After filtration through a 0.45 micron 96-well filtering plate, the filtrates were analyzed by LC-MS (Thermo Fisher's Vanquish UHPLC—LTQ XL linear ion trap Mass Spectrometer); Waters XBridge BEH Shield RP18 2.5 micron (2.1×100 mm) column with its matching guard column. Mobile phase A was 0.1% formic acid in water, and mobile phase B was 0.1% formic acid in 1:1 (v/v) acetonitrile/methanol. Flow rate was 0.5 ml/min. Elution gradient was: Time 0-1 min: 10% B; 1-6 min: 10%-95% B; 6-8.5 min: 95% B; 8.5-9 min: 95%-10% B; 9-10 min: 10% B. Mass spectrometry was in positive scanning mode from 600-1100 m/z. The peak of the molecular ion of the lipids was integrated in the extracted ion chromatography (XIC) using Xcalibur software (Thermo Fisher). The relative peak area compared to T=0, after normalization by the peak area of the internal standard, was used as the percentage of the lipid remaining at each time point. T1/2 values were calculated using the first-order decay model.

[3] = test system: factor VII; test: Factor VII knock down evaluation (LNP with FVII siRNA); assay type: in vivo, Balb/C mice; settings: plasma FVII after 48 h vs saline control; for FVII KD % 0.01 mpk: 0.01 mpk i.v.; for FVII KD % 0.03 mpk: 0.03 mpk i.v.
Procedure: Lipid formulations comprising a FVII siRNA further described below were evaluated for their knockdown activity using the protocol of this example. In the FVII evaluation, seven to eight week-old, female Balb/C mice were purchased from Charles River Laboratories (Hollister, CA). The mice were held in a pathogen-free environment and all procedures involving the mice were performed in accordance with guidelines established by the Institutional Animal Care and Use Committee (IACUC). Lipid nanoparticles containing factor VII siRNA were administered intravenously at a dosing volume of 10 mL/kg and two dose levels (0.03 and 0.01 mg/kg). After 48 h, the mice were anesthetized with isoflurane and blood was collected retro-orbitally into Microtainer® tubes coated with 0.109 M sodium citrate buffer (BD Biosciences, San Diego, CA) and processed to plasma. Plasma specimens were tested for factor VII levels immediately or stored at −80° C. for later analysis. Measurement of FVII protein in plasma was determined using the colorimetric Biophen VII assay kit (Aniara Diagnostica, USA). Absorbance was measured at 405 nm and a calibration curve was generated using the serially diluted control plasma to determine levels of factor VII in plasma from treated animals, relative to the saline-treated control animals.

[4] = In vivo biodegradability assay (lipid in liver); settings: mouse liver, 48 h
Procedure: In vivo biodegradability assay was performed to assess the biodegradability of lipids in the LNP. Briefly, mice were injected with either 0.1 or 0.03 mg/Kg dose and after 24 or 48 hours mice livers were collected. To measure the concentration of lipids in the mouse liver, liver samples were homogenized in appropriate buffer in 1-10 dilution and mixed with the same amount of stabilized plasma. The samples were then mixed with organic solvents spiked with internal standard to precipitate proteins. After centrifugation, supernatant was diluted further with organic solvent before sample analysis by LC-MS. In LC-MS analysis, positive electrospray ionization was used, and multiple reaction monitoring (MRM) parameters were set up to specifically target the lipid analyte and internal standard. Calibration standards were prepared in stabilized plasma and mixed with same amount of homogenization buffer before protein precipitation. Quality control samples with known amounts of lipid was prepared in blank liver homogenate to monitor the precision and accuracy of the assay.

[5] = test system: hEPO; test: hEPO mRNA expression evaluation (hEPO-LNPs); assay type: in vivo, Balb/c mice; settings: serum hEPO after 6 hr; for EPO exprssn (ng/mL) 0.03 mpk: 0.03 mpk i.v.; for EPO exprssn (ng/mL) 0.1 mpk: 0.1 mpk i.v.
Procedure: Protocol for hEPO mRNA Expression Evaluation
Lipid formulations comprising a hEPO mRNA below were evaluated for their ability to express hEPO in vivo according to the protocol of this example. All animal experiments were conducted using institutionally-approved protocols (IACUC). In this protocol, female Balb/c mice at least 6-8 weeks of age were purchased from Charles River Laboratory. […] After 6 hr, blood was collected with serum separation tubes, and the serum was isolated by centrifugation. Serum hEPO levels were then measured using an ELISA assay (Human Erythropoietin Quantikine IVD ELISA Kit, R&D Systems, Minneapolis, MD).

Structure (SMILES) | pKa ([1]; EPO formulation) | pKa ([1]; FVII formulation) | pKa: EPO ([1]; Table 2) | pKa: FVII ([1]; Table 2) | Percent remaining in mouse plasma after 2 h ([2]; Table 1, mouse plasma 37 C) [%] | Percent remaining in mouse plasma after 2 h ([2]; Table 2, mouse plasma 37 C) [%] | In vivo degradability (ng/tissue) at 48h 0.03 mpk ([4]; Table 1) | In vivo degradability (ng/tissue) at 48h 0.1 mpk ([4]; Table 1) | In vivo degradability (ng/tissue) at 48h 0.03 mpk ([4]; Table 2) | In vivo degradability (ng/tissue) at 48h 0.1 mpk ([4]; Table 2) | FVII KD % 0.01 mpk ([3]; Table 1) [%] | FVII KD % 0.03 mpk ([3]; Table 1) [%] | FVII KD % 0.01 mpk ([3]; Table 2) [%] | FVII KD % 0.03 mpk ([3]; Table 2) [%] | EPO exprssn (ng/mL) 0.03 mpk ([5]; Table 1) [ng/mL] | EPO exprssn (ng/mL) 0.1 mpk ([5]; Table 1) [ng/mL] | EPO exprssn (ng/mL) 0.03 mpk ([5]; Table 2) [ng/mL] | EPO exprssn (ng/mL) 0.1 mpk ([5]; Table 2) [ng/mL] | pKa: EPO ([1]; Table 1)
CC(CC1CCCCC1)C(=O)OCC(COC(=O)C(C)CC1CCCCC1)OC(=O)CCCN(CCCC(=O)OC(COC(=O)C(C)CC1CCCCC1)COC(=O)C(C)CC1CCCCC1)C(=O)SCCCN(C)C (centres unmarked) [LIPID 17, ((4,4′-((((3-(Dimethylamino)propyl)thio)carbonyl)azanediyl)bis(butanoyl))bis(oxy))bis(propane-2,1,3-triyl)tetrakis(3-cyclohexyl-2-methylpropanoate)] | 6.35 | 6.35 |  | (6.35/6.35) |  | 100 | BLOQ | BLOQ | BLOQ | BLOQ | 55 | 81 | 55 | 81 | 1082 | 1555 |  | 1082 | (6.35/
CCCCCCCCC(=O)OCC(COC(=O)CCCCCCCC)OC(=O)CCCC(CCCC(=O)OC(COC(=O)CCCCCCCC)COC(=O)CCCCCCCC)OC(=O)CCCN(C)C.Cl [LIPID 3, bis(1,3-bis(Nonanoyloxy)propan-2-yl) 5-((4-(dimethylamino)butanoyl)oxy)nonanedioate HCl Salt] | 6.41 | 6.49 | 6.41 | 6.49 | 15 | 15 | BLOQ | BLOQ | BLOQ | BLOQ | 51 | 87 | 51 | 87 | 191 | 471 | 191 | 471 | 
CCCCCCCCC(=O)OCC(COC(=O)CCCCCCCC)OC(=O)CCC(CCC(=O)OC(COC(=O)CCCCCCCC)COC(=O)CCCCCCCC)OC(=O)CCCN(C)C [LIPID 5, bis(1,3-bis(Nonanoyloxy)propan-2-yl) 4-((4-(dimethylamino)butanoyl)oxy)heptanedioate] | 6.37 | 6.54 | 6.37 | 6.54 | 40 | 40 | BLOQ | BLOQ | BLOQ | BLOQ | 90 | 62 | 90 | 62 | 87 | 533 | 87 | 533 | 

Further lines, with some results ahead:

pKa ([1]; EPO formulation) | pKa ([1]; FVII formulation) | pKa: EPO ([1]; Table 2) | pKa: FVII ([1]; Table 2) | Percent remaining in mouse plasma after 2 h ([2]; Table 1, mouse plasma 37 C) [%] | Percent remaining in mouse plasma after 2 h ([2]; Table 2, mouse plasma 37 C) [%] | In vivo degradability (ng/tissue) at 48h 0.03 mpk ([4]; Table 1) | In vivo degradability (ng/tissue) at 48h 0.1 mpk ([4]; Table 1) | In vivo degradability (ng/tissue) at 48h 0.03 mpk ([4]; Table 2) | In vivo degradability (ng/tissue) at 48h 0.1 mpk ([4]; Table 2) | Structure (SMILES) | FVII KD % 0.01 mpk ([3]; Table 1) [%] | FVII KD % 0.03 mpk ([3]; Table 1) [%] | FVII KD % 0.01 mpk ([3]; Table 2) [%] | FVII KD % 0.03 mpk ([3]; Table 2) [%] | EPO exprssn (ng/mL) 0.03 mpk ([5]; Table 1) [ng/mL] | EPO exprssn (ng/mL) 0.1 mpk ([5]; Table 1) [ng/mL] | EPO exprssn (ng/mL) 0.03 mpk ([5]; Table 2) [ng/mL] | EPO exprssn (ng/mL) 0.1 mpk ([5]; Table 2) [ng/mL] | pKa: EPO ([1]; Table 1)
6.46 | 6.61 | 6.46 | 6.61 | 57 | 57 | BLOQ | BLOQ | BLOQ | BLOQ | CN(C)CCCSC(=O)N(CCCCCC(=O)OC(COC(=O)CCC1CCCCC1)COC(=O)CCC1CCCCC1)CCCCCC(=O)OC(COC(=O)CCC1CCCCC1)COC(=O)CCC1CCCCC1 [LIPID 12, ((6,6′-((((3-(Dimethylamino)propyl)thio)carbonyl)azanediyl)bis(hexanoyl))bis(oxy))bis(propane-2,1,3-triyl)tetrakis(3-cyclohexylpropanoate)] | 91 | 69 | 91 | 69 | 286 | 768 | 286 | 768 | 
6.46 | 6.67 | 6.46 | 6.67 | 36 | 36 | BLOQ | BLOQ | BLOQ | BLOQ | CN(C)CCCSC(=O)N(CCCC(=O)OC(COC(=O)CCC1CCCCC1)COC(=O)CCC1CCCCC1)CCCC(=O)OC(COC(=O)CCC1CCCCC1)COC(=O)CCC1CCCCC1 [LIPID 10, ((4,4′-((((3-(Dimethylamino)propyl)thio)carbonyl)azanediyl)bis(butanoyl))bis(oxy))bis(propane-2,1,3-triyl)tetrakis(3-cyclohexylpropanoate)] | 92 | 83 | 92 | 83 | 387 | 1179 | 387 | 1179 | 
6.57 | 6.45 | 6.57 | 6.45 | 256 | 100 | <340 ng/tissue | <340 ng/tissue | <340 ng/tissue | <340 ng/tissue | CC1CCC(CC(=O)OCC(COC(=O)CC2CCC(C)CC2)OC(=O)CCCN(CCCC(=O)OC(COC(=O)CC2CCC(C)CC2)COC(=O)CC2CCC(C)CC2)C(=O)SCCCN(C)C)CC1 (centres unmarked) [LIPID 15, ((4,4′-((((3-(Dimethylamino)propyl)thio)carbonyl)azanediyl)bis(butanoyl))bis(oxy))bis(propane-2,1,3-triyl)tetrakis(2-(4-methylcyclohexyl)acetate)] |  |  | 66.8 | 89.7 |  |  |  | 1899 | 
6.4 | 6.61 | 6.40 | 6.61 | 74 | 74 | <340 ng/tissue | <340 ng/tissue | <340 ng/tissue | <340 ng/tissue | CCCCCCCCC(=O)OCC(COC(=O)CCCCCCCC)OC(=O)CCN(CCC(=O)OC(COC(=O)CCCCCCCC)COC(=O)CCCCCCCC)C(=O)SCCCN(C)C [LIPID 13] | 60 | 87 | 60 | 87 |  |  |  | 1488.1 | 
